Like-named read-outs stand apart in the source and are kept apart here.

The test system of data set [1] is Chang's human conjunctival epithelial cell strain (CCL-20.2). In kind it is cell-based. On the procedure: (§1) Cells Used: The corneal cell used herein was SV40 immortalized human corneal epithelial cell strain (HCEC) (Araki-Sasaki et al., IOVS, 1995, 36:614-621) and the conjunctival cell used herein was Chang's human conjunctival epithelial cell strain (CCL-20.2) (ATC CCCL-20.2).
(§2) Experiments: The cells were cultivated to a density of 5×10^4 cells/mL in a growth medium containing 10% serum, inoculated in a 96-well multiplate in an amount of 100 μL/well and cultivated at 37° C. overnight. After the cultivation thereof to a confluent of 30 to 50%, the culture medium was dissolved in a fresh culture medium, followed by the addition of stepwise diluted MS and further diclofenac sodium and the subsequent cultivation at 37° C. for 24 hours. After the cultivation, each well was washed, followed by the addition of a fresh culture medium (100 μL/well) and WST-8 (10 μL/well; Cell Counting Kit-8 available from DOJIN Chemical Co., Ltd.), subsequent cultivation for 1.5 hour and the determination of the absorbance at 450-660 nm to thus calculate the viable cell count.
(§3) Method for Evaluating Toxicity: A test group free of any candidate compound was used as a negative control, the absorbance thereof was assumed to be 100% and a dose-correlation curve was prepared, which was expressed as the cell survival rates as a function of the concentration of each test substance.

The subject of data set [2] is SV40 immortalized human corneal epithelial cell strain (HCEC). On the procedure:
as §1, §2, §3

For data set [3], the system named is corneal epithelial cells. As to conditions: cited from earlier work; for effect on healing of the damaged area of the epithelium: addition to the monolayer culture.
Data set [4] relates to corneal epithelial cells. The settings on record: cultivation of the epithelial cells; cited from earlier work.
The test system of data set [5] is corneal epithelial cells. As to conditions: cited from earlier work.
In data set [6] the test system is epithelial cells of lenses. As to conditions: cited from earlier work.
Where [7] appears, read: MS 0.01 μM + diclofenac sodium 0.25 mM.
Where [8] appears, read: MS 0.01 μM + diclofenac sodium 0.5 mM.
The mark [9] stands for this setting: MS 0.01 μM, diclofenac sodium 0 mM.
Where [10] appears, read: MS 0.1 μM + diclofenac sodium 0.25 mM.
[11] abbreviates: MS 0.1 μM + diclofenac sodium 0.5 mM.
[12] abbreviates: MS 0.1 μM, diclofenac sodium 0 mM.
[13] abbreviates: MS 1 μM + diclofenac sodium 0.25 mM.
Where [14] appears, read: MS 1 μM + diclofenac sodium 0.5 mM.
Setting [15] is: MS 1 μM, diclofenac sodium 0 mM.
Where [16] appears, read: MS 10 μM + diclofenac sodium 0.25 mM.
The mark [17] stands for this setting: MS 10 μM + diclofenac sodium 0.5 mM.
[18] abbreviates: MS 10 μM, diclofenac sodium 0 mM.
The mark [19] stands for this setting: MS 100 μM + diclofenac sodium 0.25 mM.
Where [20] appears, read: MS 100 μM + diclofenac sodium 0.5 mM.
The mark [21] stands for this setting: MS 100 μM, diclofenac sodium 0 mM.
[22] abbreviates: added together with diclofenac sodium.
Setting [23] is: diclofenac sodium 0.25 mM, MS 0 μM, 24 hours.
[24] abbreviates: diclofenac sodium 0.5 mM, MS 0 μM, 24 hours.

Regarding `CCCCC(C)(O)C/C=C/[C@H]1[C@H](O)CC(=O)[C@@H]1CCCCCCC(=O)OC` (mixture of isomers) [Misoprostol], the “cell survival rate (% of negative control)” value in data set [1] (MS 0.01 μM + diclofenac sodium 0.125 mM) worked out at 91.1 ± 8.1%; in data set [1] (setting [7]) it was 42.6 ± 4.9%; in data set [1] (setting [8]), 33.1 ± 7.4%; in data set [1] (setting [9]), 93.0 ± 14.8%; in data set [1] (MS 0.1 μM + diclofenac sodium 0.125 mM) it was 97.1 ± 4.5%; in data set [1] (setting [10]), 45.0 ± 6.7%. The “cell survival rate (% of negative control)” value in data set [1] (setting [11]) is 34.2 ± 9.3%; in data set [1] (setting [12]), 98.6 ± 20.2%; in data set [1] (MS 1 μM + diclofenac sodium 0.125 mM), 96.4 ± 8.4%; in data set [1] (setting [13]) it was 44.0 ± 6.4%; in data set [1] (setting [14]) it was 34.4 ± 12.2%; in data set [1] (setting [15]), 104.0 ± 26.6%. Moreover, the “cell survival rate (% of negative control)” value in data set [1] (MS 10 μM + diclofenac sodium 0.125 mM) worked out at 97.8 ± 9.6%; in data set [1] (setting [16]), 46.4 ± 7.3%; in data set [1] (setting [17]), 33.7 ± 9.4%; in data set [1] (setting [18]) it was 99.5 ± 22.2%; in data set [1] (MS 100 μM + diclofenac sodium 0.125 mM), 55.4 ± 14.7%; in data set [1] (setting [19]), 31.5 ± 7.4%. For the same compound, the “cell survival rate (% of negative control)” value in data set [1] (setting [20]) turned out to be 28.7 ± 6.4%; in data set [1] (setting [21]), 86.3 ± 12.0%; in data set [2] (setting [7]) it was 69.9 ± 8.3%; in data set [2] (setting [8]), 59.2 ± 10.4%; in data set [2] (MS 0.01 μM + diclofenac sodium 1 mM), 21.1 ± 9.9%; in data set [2] (setting [9]), 87.2 ± 13.2%. Also, the “cell survival rate (% of negative control)” value in data set [2] (setting [10]) was found to be 72.5 ± 12.6%; in data set [2] (setting [11]), 61.6 ± 13.6%; in data set [2] (MS 0.1 μM + diclofenac sodium 1 mM), 22.2 ± 8.3%; in data set [2] (setting [12]), 98.9 ± 20.4%; in data set [2] (setting [13]), 73.1 ± 11.7%; in data set [2] (setting [14]), 68.8 ± 17.1%. Also, the “cell survival rate (% of negative control)” value in data set [2] (MS 1 μM + diclofenac sodium 1 mM) came to 22.4 ± 8.0%; in data set [2] (setting [15]), 99.1 ± 22.3%; in data set [2] (setting [16]) it was 69.6 ± 10.5%; in data set [2] (setting [17]), 68.4 ± 13.4%; in data set [2] (MS 10 μM + diclofenac sodium 1 mM), 22.6 ± 9.5%; in data set [2] (setting [18]), 102.4 ± 24.5%. In addition, the “cell survival rate (% of negative control)” value in data set [2] (setting [19]) was 31.7 ± 8.8%; in data set [2] (setting [20]), 7.2 ± 4.5%; in data set [2] (MS 100 μM + diclofenac sodium 1 mM), −1.3 ± 1.3%; in data set [2] (setting [21]), 99.2 ± 30.7%. Moreover, in data set [1] (human, 24 h), the “concentration at which MS per se had a cytotoxic effect” value turned out to be 100 µM.
On to `CCCCC(C)(C)[C@H](O)/C=C/[C@H]1[C@H](O)CC(=O)[C@@H]1C/C=C\CCCC(=O)O` [16,16-dimethyl prostaglandin E2], for which the “effect on healing of the damaged epithelium” value in data set [3] (added alone) and in data set [3] (setting [22]) was “does not show any effect on the healing of the damaged corneal epithelium” each time.
Turning to `O=C(O)Cc1ccccc1Nc1c(Cl)cccc1Cl` [Diclofenac Sodium, diclofenac sodium], the “cell survival rate (% of negative control)” value came out at 74.0 ± 10.0% in data set [1] (diclofenac sodium 0.125 mM, MS 0 μM, 24 hours); 37.8 ± 5.7% in data set [1] (setting [23]); 29.3 ± 5.6% in data set [1] (setting [24]); 56.9 ± 8.7% in data set [2] (setting [23]); 48.2 ± 6.7% in data set [2] (setting [24]); 17.3 ± 5.4% in data set [2] (diclofenac sodium 1 mM, MS 0 μM, 24 hours). For the same compound, the “effect on growth of the corneal epithelial cells” value in data set [2] (0.25 mM, 0.5 mM or 1 mM, dose-dependent) is “inhibits the growth of the corneal epithelial cells”. In addition, the “effect on proliferation of the epithelium” value in data set [4] is listed as “do not affect the proliferation of the epithelium”. Moreover, the “effect on epithelium extension promoted by EGF” value in data set [5] (added simultaneously with EGF) is listed as “inhibit the epithelium extension-promoting effect due to the EGF”. Also, the “effect on extension of the corneal epithelial cells” value in data set [5] (agent alone) is “does not affect the extension of the corneal epithelial cells”. In addition, the “effect on proliferation of lens epithelial cells” value in data set [6] (25, 50 and 100 μM added to the culture medium) is on record as “control of the proliferation of the epithelial cells”. In addition, the “effect on healing of the damaged area of the epithelium” value in data set [3] is given as “would inhibit the damaged epithelium-healing”.
For `CCCCC[C@H](O)/C=C/[C@H]1[C@H](O)CC(=O)[C@@H]1C/C=C\CCCC(=O)O` [PGE2, prostaglandin E2], the “effect on growth of lens epithelial cells” value in data set [6] (1, 10, 50 and 100 μM added to the culture medium) is “permits the growth of the epithelial cells”.
Regarding `CC(C)OC(=O)CCC/C=C\C[C@@H]1[C@@H](CC[C@@H](O)CCc2ccccc2)[C@H](O)C[C@@H]1O` [latanoprost], the “effect on healing of the damaged epithelium” value in data set [3] (added alone) is reported as “any such effect cannot be obtained”; in data set [3] (setting [22]), “can recover the healing of the damaged epithelium”.
Turning to EGF: epithelium growth factor (EGF), the “effect on healing of the damaged area of the epithelium” value in data set [3] is “would promote the healing of the wound on the damaged area”.

The record behind these values is patent US20050124699A1, “Drugs for treating or preventing disorders of corneal and/or conjunctival epithelial cells” (WAKAMOTO PHARMACEUTICAL CO., LTD., priority 2002, published 2005).
